In experiment [1] the test system is Mus musculus. The experiment can be described thus: Dose required to induce hyperactivity in mice (ip); weak at a dose of 150.0 mg/kg. The experiment is classed as functional, organism-based. On the set-up: dose 150 mg/kg.
Experiment [2] relates to Mus musculus. The experiment can be described thus: Minimal dose required to induce in mice straub tail (ip); not active at a dose of 150.0 mg/kg. Format: functional, organism-based. On the set-up: dose 150 mg/kg.
Experiment [3] deals with Mus musculus. The experiment can be described thus: Minimal dose required to cause aggressiveness in mice after ip administration; not active at a dose of 150.0 mg/kg. The experiment is classed as functional, organism-based. On the set-up: dose 150 mg/kg.
In a further experiment the test system is Felis catus. The experiment in a line: Compound tested to induce facilitation of monosynaptic spikes in spinal ventral root by stimulation of the dorsal root (DR-VR) after iv administration in cats; range is 0.1-0.3. The experiment is classed as functional.
The subject of experiment [4] is Mus musculus. The experiment can be described thus: Inhibition of reserpine (5 mg/kg i.p.) induced hypothermia in mice 4 hr after i.p. administration. The following applies: ip. The experiment is classed as functional.
For experiment [5], the system named is Mus musculus. The experiment in a line: Minimal dose required to cause piloerection in mice after ip administration; not active at a dose of 150.0 mg/kg. The experiment is classed as functional, organism-based. The arrangement: dose 150 mg/kg.
Experiment [6] deals with Mus musculus. The experiment in a line: Inhibition of reserpine (5 mg/kg i.p.) induced hypothermia in mice 2 hr after i.p. administration. The experiment is classed as functional. As to conditions: ip.
The subject of experiment [7] is Mus musculus. The experiment can be described thus: Minimal dose required to induce hyperaesthesia in mice (ip); not active at a dose of 150.0 mg/kg. Format: functional, organism-based. On the set-up: dose 150 mg/kg.
Experiment [8] concerns Mus musculus. The experiment in a line: Minimal dose required to induce in mice exophthalmus (ip); not active at a dose of 150.0 mg/kg. The arrangement: dose 150 mg/kg. The experiment is classed as functional, organism-based.
The test system of experiment [9] is Mus musculus. The experiment in a line: Lethal dose by i.p. administration. Format: functional. The following applies: ip.
The subject of experiment [10] is Mus musculus. The experiment in a line: Dose required to induce hypersensitivity in mice (ip). The experiment is classed as functional.

The source made the active and inactive calls. The rule behind the calls is not given here.

From ChEMBL document CHEMBL1122475, “Antidepressant activity of 5-aryl-2,3,5,6-tetrahydroimidazo[2,1-a]isoquinolin-5-ols” (1983) come the findings set out here.

In the case of `OC1(c2ccc(Cl)c(Cl)c2)Cc2ccccc2C2=NCCN21` (stereo unspecified), the ED50 entry with Mus musculus [1] was “Weak”; in the experiment with Mus musculus [4], greater than 25.6 mg/kg; with Mus musculus [6], 1.6 mg/kg; in the experiment on Mus musculus [10] it was 150 mg/kg. Moreover, the MD result in the experiment on Mus musculus [2], in the experiment on Mus musculus [3], in the experiment with Mus musculus [5], in the experiment with Mus musculus [7] and with Mus musculus [8] was “inactive” in each case. Further, in the experiment on Felis catus, the Activity is 0.1 mg/kg. The compound also showed an LD50 with Mus musculus [9] of 150 mg/kg.
